Earlier results, collected in patent publication US20210220347A1 (priority 2015, published 2021).

Conditions: in vivo

Structure (SMILES): CN1CC[C@]23c4c5ccc(O)c4O[C@H]2[C@@H](O)C=C[C@H]3[C@H]1C5 [morphine]
- Respiratory depression dose response: linear and dose proportional
